Experimental data as given in US20050209157A1, “Short bioactive peptides and methods for their use” (priority 2001, published 2005).
Residues, ends and D or L forms follow the SMILES beside them. No end group written: not given here.

Key:
WI38 = settings: MTT, 24 hours with peptide; for WI38 LD50: normal fibroblast line; for LD50 WI38: WI38 normal lung fibroblast line
Protocol: Viability of cells is determined by the dye response. In the following procedure, approximately 1.5×10^4 cells per well were added and viability was determined with the cells in a semi-confluent state. The assay was performed in a 96-well microtiter plate. After addition of peptide, the plate was set for 24 hours. MTT (5 mg/ml in phenol red-free RPMI-1640, 20 μl) was added to each well including positive control wells untreated with peptide. The plate was incubated at 37° C. for 4 hours. The liquid contents of each well was removed, and isopropanol with 0.1 M HCl (100 μl) was added to each well. The plate was sealed with parafilm to prevent evaporation of the isopropanol. The plate is allowed to rest for 5-10 minutes in order to solubilize the precipitate. Purified water (100 μl) was added to each well. Absorbance was determined with an ELISA Reader instrument. Color intensity at 540 nm is proportional to viability of cells.
WI38 (ATCC No. CCL75) is a normal fibroblast line of lung diploid cells, MCF7 (ATCC No. HTB22) is a breast adenocarcinoma tumor cell line, SW480 (ATCC No. CCL228) is a colon adenocarcinoma tumor cell line, BMKC is a cloned melanoma line derived from Bowes melanoma line HMCB (ATCC No. CRL9607), H1299 (ATCC No. CRL5803) is a lung large cell carcinoma tumor line, HeLaS3 (ATCC No. CCL2.2) is a cervical epitheleal carcinoma tumor cell line, and PC3 (ATCC No. CRL1435) is a prostate adenocarcinoma tumor cell line.

[1] = test system: Staphylococcus aureus ATCC 6538; test: Antimicrobial assay I, MIC by OD measurement; assay type: cell-based; settings: 37° C. for 24 hours, absorbance 620 nm
[2] = test system: Pseudomonas aeruginosa ATCC 9027; test: Antimicrobial assay I, MIC by OD measurement; assay type: cell-based; settings: 37° C. for 24 hours, absorbance 620 nm
[3] = test system: yeast (Saccharomyces cerevisiae); test: Antimicrobial assay I, yeast assay in RPMI 1640; assay type: cell-based; settings: RPMI 1640 media
Protocol: The data for the following antimicrobial assay of the peptides have been obtained by making OD measurements in in vitro cell culture experiments with and without added peptide. The protocol used is as follows.
Absorbance was read at 620 nm after shaking to resuspend cells.
The yeast assay was performed in RPMI 1640 media (pH 7.0 at 25° C.).
Staph6538 is Staphylococcus aureus ATCC accession number 6538; paerug9027 is Pseudomonas aeruginosa ATCC accession number 9027, yeast is Saccharomyces cerevisiae.

[4] = test system: human red blood cells (RBC); test: in vitro; assay type: cell-based; settings: hemolytic assay, concentration at 50% hemolysis, 1 hour at 37° C.
SW480 = test: Anti-cancer assay, MTT, LD50; assay type: cell-based; settings: SW480 colon adenocarcinoma line, 24 hours with peptide
Source text: (§1) Numbers are LD50 values (μg/mL).

HeLaS3 = test: Anti-cancer assay, MTT, LD50; assay type: cell-based; settings: 24 hours with peptide, cervical carcinoma
Source text: as §1

PC3 = test: Anti-cancer assay, MTT, LD50; assay type: cell-based; settings: 24 hours with peptide, prostate adenocarcinoma
Source text: as §1

H1299 = test: Anti-cancer assay, MTT, LD50; assay type: cell-based; settings: 24 hours with peptide, lung large cell carcinoma
Source text: as §1

BMKC = test: Anti-cancer assay, MTT, LD50; assay type: cell-based; settings: BMKC cloned melanoma line, 24 hours with peptide
Source text: as §1

MCF7 = test: Anti-cancer assay, MTT, LD50; assay type: cell-based; settings: MCF7 breast adenocarcinoma line, MTT, 24 hours with peptide
Source text: as §1

| Compound | WI38 LD50 (WI38) | LD50 WI38 (WI38) | staph6538 (MIC) [1] | paerug9027 (MIC) [2] | yeast (MIC or MFC) [3] | LD50 [4] | LD50 SW480 (SW480) | HeLaS3 LD50 (HeLaS3) | PC3 LD50 (PC3) | H1299 LD50 (H1299) | LD50 BMKC (BMKC) | LD50 MCF7 (MCF7) |
| --- | --- | --- | --- | --- | --- | --- | --- | --- | --- | --- | --- | --- |
| FAFAKIIAKIAKKII-NH2 [P140] | > (> indicates greater than 1000) | > (> indicates greater than 1000) | > (> indicates greater than 200 μg/mL) | > (> indicates greater than 200 μg/mL) | > (> indicates greater than 200 μg/mL) | > (> indicates greater than 1000) | > (> indicates greater than 1000) | 285 µg/mL | > (> indicates greater than 1000) | > (> indicates greater than 1000) | > (> indicates greater than 1000) | > (> indicates greater than 1000) |
| KAKLF-NH2 [P130, KAKLF-NH2] | > (> indicates greater than 1000) | > (> indicates greater than 1000) | 200 µg/mL | 200 µg/mL | 200 µg/mL | > (> indicates greater than 1000) | > (> indicates greater than 1000) | > (> indicates greater than 1000) | > (> indicates greater than 1000) | > (> indicates greater than 1000) | > (> indicates greater than 1000) | > (> indicates greater than 1000) |
| FAKLLAKAFKKAL-NH2 [P114, FAKLLAKAFKKAL-NH2] | > (> indicates greater than 1000) | > (> indicates greater than 1000) | 50 µg/mL | 15 µg/mL | 100 µg/mL | > (> indicates greater than 1000) | > (> indicates greater than 1000) | > (> indicates greater than 1000) | > (> indicates greater than 1000) | > (> indicates greater than 1000) | > (> indicates greater than 1000) | 730 µg/mL |
| CC(C)C[C@H](NC(=O)[C@H](C)NC(=O)[C@@H](N)Cc1ccccc1)C(=O)N[C@@H](C)C(N)=O [P183, FALA-NH2] (H-FALA-NH2; N-terminus assumed) | > (> indicates greater than 1000) | > (> indicates greater than 1000) | 200 µg/mL | 100 µg/mL | 200 µg/mL | > (> indicates greater than 1000) | > (> indicates greater than 1000) | > (> indicates greater than 1000) | > (> indicates greater than 1000) | > (> indicates greater than 1000) | > (> indicates greater than 1000) | > (> indicates greater than 1000) |
| FAKIIAKIAKKI-NH2 [P143] | > (> indicates greater than 1000) | > (> indicates greater than 1000) | 100 µg/mL | 50 µg/mL | 200 µg/mL | > (> indicates greater than 1000) | > (> indicates greater than 1000) | > (> indicates greater than 1000) | > (> indicates greater than 1000) | > (> indicates greater than 1000) | > (> indicates greater than 1000) | > (> indicates greater than 1000) |
| FGKGIGKVGKKLL-NH2 [P132] | > (> indicates greater than 1000) | > (> indicates greater than 1000) | > (> indicates greater than 200 μg/mL) | 100 µg/mL | > (> indicates greater than 200 μg/mL) | > (> indicates greater than 1000) | > (> indicates greater than 1000) | > (> indicates greater than 1000) | > (> indicates greater than 1000) | > (> indicates greater than 1000) | > (> indicates greater than 1000) | > (> indicates greater than 1000) |
| FAKLWAKLAKKL-NH2 [P136] | > (> indicates greater than 1000) | > (> indicates greater than 1000) | 100 µg/mL | 50 µg/mL | 100 µg/mL | > (> indicates greater than 1000) | 600 µg/mL | 400 µg/mL | 900 µg/mL | 450 µg/mL | 530 µg/mL | 500 µg/mL |
| FAKLLAKLAKAKG-NH2 [P96] | > (> indicates greater than 1000) | > (> indicates greater than 1000) | > (> indicates greater than 200 μg/mL) | > (> indicates greater than 200 μg/mL) | > (> indicates greater than 200 μg/mL) | > (> indicates greater than 1000) | > (> indicates greater than 1000) | > (> indicates greater than 1000) | > (> indicates greater than 1000) | > (> indicates greater than 1000) | > (> indicates greater than 1000) | > (> indicates greater than 1000) |
| KWKLF-NH2 [P131, KWKLF-NH2] | > (> indicates greater than 1000) | > (> indicates greater than 1000) | 25 µg/mL | 10 µg/mL | 100 µg/mL | > (> indicates greater than 1000) | 555 µg/mL | > (> indicates greater than 1000) | > (> indicates greater than 1000) | > (> indicates greater than 1000) | > (> indicates greater than 1000) | 600 µg/mL |
| FAKLFAKAFKKAL-NH2 [P117, FAKLFAKAFKKAL-NH2] | > (> indicates greater than 1000) | > (> indicates greater than 1000) | 100 µg/mL | 200 µg/mL | 200 µg/mL | > (> indicates greater than 1000) | > (> indicates greater than 1000) | > (> indicates greater than 1000) | > (> indicates greater than 1000) | > (> indicates greater than 1000) | > (> indicates greater than 1000) | > (> indicates greater than 1000) |
| FAKKLAKALL-NH2 [P58] | > (> indicates greater than 1000) | > (> indicates greater than 1000) | 100 µg/mL | 100 µg/mL | 200 µg/mL | > (> indicates greater than 1000) | > (> indicates greater than 1000) | > (> indicates greater than 1000) | > (> indicates greater than 1000) | > (> indicates greater than 1000) | > (> indicates greater than 1000) | > (> indicates greater than 1000) |
| MPKWKVFKKIEKVGRNIRNGIVKAGPAIAVLGEAKALG-OH [P5, reference compound] |  |  | 100 µg/mL | 50 µg/mL | > (> indicates greater than 200 μg/mL) | > (> indicates greater than 1000) |  |  |  |  |  |  |
| FALALKALKKA-NH2 [P176] |  |  | > (> indicates greater than 200 μg/mL) | > (> indicates greater than 200 μg/mL) | > (> indicates greater than 200 μg/mL) | > (> indicates greater than 1000) |  |  |  |  |  |  |
| YAKLLAKLAKKAL-NH2 [P155, YAKLLAKLAKKAL-NH2] | > (> indicates greater than 1000) | > (> indicates greater than 1000) | > (> indicates greater than 200 μg/mL) | > (> indicates greater than 200 μg/mL) | > (> indicates greater than 200 μg/mL) | > (> indicates greater than 1000) | > (> indicates greater than 1000) | > (> indicates greater than 1000) |  | > (> indicates greater than 1000) | > (> indicates greater than 1000) | > (> indicates greater than 1000) |
